This is an account of results in patent publication US10407429B2, “Pyrazolo[1,5-a]triazin-4-amine derivatives useful in therapy” (Curovir AB, priority 2015, dated 2019).

Where two headings read alike, the source gives them in different places.

One assay has as its target PI4KIIIα (Homo sapiens, UniProt P42356). The assay is described as follows: Phosphatidyl inositol kinase inhibition assay (ADP-Glo Kinase Assay). It counts as biochemical. On the procedure:
(§1) Phosphatidyl Inositol Kinase Inhibition Assay Inhibition of PI4 kinases was studied using the ADP-Glo™ Kinase Assay which is a luminescent kinase assay that measures ADP formed from a kinase reaction; ADP is converted into ATP, which is converted into light by Ultra-Glo™ Luciferase. The assay is performed in two steps; first, after the kinase reaction, an equal volume of ADP-Glo™ Reagent is added to terminate the kinase reaction and deplete the remaining ATP. In the second step, the Kinase Detection Reagent is added, which simultaneously converts ADP to ATP and allows the newly synthesized ATP to be measured using a coupled luciferase/luciferin reaction. The luminescent signal produced is proportional to the activity of the kinase.

Another assay has as its target PI4KIIIβ (Homo sapiens, UniProt Q9UBF8). The assay is described as above. In kind it is biochemical. As for the experimental part:
as §1

The next assay deals with PI3Kα (Homo sapiens, UniProt P42336). As to the kind of experiment: Phosphatidyl inositol kinase inhibition assay (HTRF). In kind it is biochemical. The source says: (§2) Phosphatidyl Inositol Kinase Inhibition Assay
(§3) Inhibition of PI3 kinases was studied using the HTRF (homogeneous time-resolved fluorescence) assay which is a universal method for identifying and characterizing the phosphotransferase activity induced by any ATP/ADP dependent target. The formation of ADP is detected by a specific monoclonal antibody labeled with Eu^3+ cryptate, and directly correlates with the amount of phosphorylated substrate in kinase assays

In another assay the target is PI3Kβ (Homo sapiens, UniProt P42338). The assay is described as above. In kind it is biochemical.
Description: as §2, §3

The next assay deals with Enterovirus 6. The assay is described as follows: Antiviral CPE assay in mammalian cell culture. The conditions noted are these: prevention of viral CPE, read-out: inhibition capacity (IC50) EV6. In kind it is cell-based.
A further assay concerns Enterovirus 30. As to the kind of experiment: Antiviral CPE assay in mammalian cell culture. It counts as cell-based. As to conditions: read-out: inhibition capacity (IC50) EV30.
The next assay concerns Enterovirus 68. The assay is described as follows: Antiviral CPE assay in mammalian cell culture. In kind it is cell-based. The conditions noted are these: Enterovirus D.
The subject of another assay is Enterovirus 71. The assay is described as follows: Antiviral CPE assay in mammalian cell culture. As to conditions: Enterovirus A, EV71, prevention of viral CPE, read-out: inhibition capacity (IC50) EV71. In kind it is cell-based.
The subject of another assay is coxsackie B1 virus. The assay is described as follows: Antiviral CPE assay in mammalian cell culture. In kind it is cell-based. The conditions noted are these: read-out: inhibition capacity (IC50) Bl.
The test system of another assay is coxsackie B2 virus. The assay is described as follows: Antiviral CPE assay in mammalian cell culture. As to conditions: read-out: inhibition capacity (IC50) B2. It counts as cell-based.
In a further assay the test system is coxsackie B3 virus. The assay is described as follows: Antiviral CPE assay in mammalian cell culture. In kind it is cell-based. The conditions noted are these: Enterovirus B.
The next assay deals with coxsackie B 4 virus. As to the kind of experiment: Antiviral CPE assay in mammalian cell culture. In kind it is cell-based. As to conditions: Enterovirus B.
A further assay has as its system coxsackie B5virus. As to the kind of experiment: Antiviral CPE assay in mammalian cell culture. It counts as cell-based. The conditions noted are these: read-out: inhibition capacity (IC50) B5.
A further assay deals with polio virus Sabin 1. As to the kind of experiment: organism not typed. In kind it is cell-based. As to conditions: read-out: inhibition capacity (IC50) Polio 1.
Setting [1] is: EV68, read-out: inhibition capacity (IC50) EV68.
Setting [2] is: B3, read-out: inhibition capacity (IC50) B3.
Where [3] appears, read: B4, read-out: inhibition capacity (IC50) B4.

Sequence of PI3Kβ (P42338 whole entry, species assumed): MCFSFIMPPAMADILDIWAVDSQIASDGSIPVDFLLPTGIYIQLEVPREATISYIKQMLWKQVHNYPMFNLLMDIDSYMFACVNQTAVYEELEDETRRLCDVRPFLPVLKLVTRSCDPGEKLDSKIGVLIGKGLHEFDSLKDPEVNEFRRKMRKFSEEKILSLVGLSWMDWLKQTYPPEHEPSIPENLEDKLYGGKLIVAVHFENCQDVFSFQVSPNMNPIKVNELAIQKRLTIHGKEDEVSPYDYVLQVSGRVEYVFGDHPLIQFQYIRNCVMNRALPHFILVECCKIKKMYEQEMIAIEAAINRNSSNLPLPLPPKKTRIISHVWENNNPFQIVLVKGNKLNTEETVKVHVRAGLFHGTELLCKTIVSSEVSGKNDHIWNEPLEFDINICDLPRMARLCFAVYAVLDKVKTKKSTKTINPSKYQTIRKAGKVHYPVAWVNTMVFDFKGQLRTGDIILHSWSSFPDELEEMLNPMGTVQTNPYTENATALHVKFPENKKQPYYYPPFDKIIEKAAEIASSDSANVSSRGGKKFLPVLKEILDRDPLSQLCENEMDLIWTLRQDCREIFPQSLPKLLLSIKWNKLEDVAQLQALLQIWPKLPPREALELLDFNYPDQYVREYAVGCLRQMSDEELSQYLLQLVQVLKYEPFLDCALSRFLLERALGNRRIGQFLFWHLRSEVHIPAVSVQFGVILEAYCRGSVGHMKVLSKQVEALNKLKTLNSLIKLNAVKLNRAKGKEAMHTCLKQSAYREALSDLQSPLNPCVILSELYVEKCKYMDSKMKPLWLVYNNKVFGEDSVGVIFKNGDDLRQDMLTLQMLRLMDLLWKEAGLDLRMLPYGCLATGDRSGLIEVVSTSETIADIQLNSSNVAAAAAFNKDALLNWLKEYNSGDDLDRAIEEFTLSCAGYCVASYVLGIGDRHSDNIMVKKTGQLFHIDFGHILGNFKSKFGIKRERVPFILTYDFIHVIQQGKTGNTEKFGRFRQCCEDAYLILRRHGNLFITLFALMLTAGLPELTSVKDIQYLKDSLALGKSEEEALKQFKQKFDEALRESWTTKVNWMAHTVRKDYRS
Sequence of PI3Kβ (P27986 whole entry partner, species assumed): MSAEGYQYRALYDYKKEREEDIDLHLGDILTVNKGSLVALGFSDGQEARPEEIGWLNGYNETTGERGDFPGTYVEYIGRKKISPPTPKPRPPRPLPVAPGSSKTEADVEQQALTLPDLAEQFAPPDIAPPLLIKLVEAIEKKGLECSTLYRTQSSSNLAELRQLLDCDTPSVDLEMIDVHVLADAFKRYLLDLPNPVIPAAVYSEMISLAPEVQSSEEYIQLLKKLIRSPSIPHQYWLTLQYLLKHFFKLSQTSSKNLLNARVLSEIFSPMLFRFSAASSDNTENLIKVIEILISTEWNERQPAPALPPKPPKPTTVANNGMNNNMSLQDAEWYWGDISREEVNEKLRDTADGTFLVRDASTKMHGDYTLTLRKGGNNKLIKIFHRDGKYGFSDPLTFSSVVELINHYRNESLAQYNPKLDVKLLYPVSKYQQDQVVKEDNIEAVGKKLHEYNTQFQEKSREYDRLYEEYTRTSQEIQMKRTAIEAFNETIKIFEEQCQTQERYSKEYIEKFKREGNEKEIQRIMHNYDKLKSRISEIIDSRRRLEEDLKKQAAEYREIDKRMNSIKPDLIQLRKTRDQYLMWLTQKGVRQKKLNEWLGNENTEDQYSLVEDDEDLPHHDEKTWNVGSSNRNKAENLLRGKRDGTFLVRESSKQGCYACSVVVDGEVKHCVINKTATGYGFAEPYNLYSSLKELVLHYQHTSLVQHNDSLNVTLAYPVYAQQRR
Sequence of PI4KIIIα (P42356 whole entry): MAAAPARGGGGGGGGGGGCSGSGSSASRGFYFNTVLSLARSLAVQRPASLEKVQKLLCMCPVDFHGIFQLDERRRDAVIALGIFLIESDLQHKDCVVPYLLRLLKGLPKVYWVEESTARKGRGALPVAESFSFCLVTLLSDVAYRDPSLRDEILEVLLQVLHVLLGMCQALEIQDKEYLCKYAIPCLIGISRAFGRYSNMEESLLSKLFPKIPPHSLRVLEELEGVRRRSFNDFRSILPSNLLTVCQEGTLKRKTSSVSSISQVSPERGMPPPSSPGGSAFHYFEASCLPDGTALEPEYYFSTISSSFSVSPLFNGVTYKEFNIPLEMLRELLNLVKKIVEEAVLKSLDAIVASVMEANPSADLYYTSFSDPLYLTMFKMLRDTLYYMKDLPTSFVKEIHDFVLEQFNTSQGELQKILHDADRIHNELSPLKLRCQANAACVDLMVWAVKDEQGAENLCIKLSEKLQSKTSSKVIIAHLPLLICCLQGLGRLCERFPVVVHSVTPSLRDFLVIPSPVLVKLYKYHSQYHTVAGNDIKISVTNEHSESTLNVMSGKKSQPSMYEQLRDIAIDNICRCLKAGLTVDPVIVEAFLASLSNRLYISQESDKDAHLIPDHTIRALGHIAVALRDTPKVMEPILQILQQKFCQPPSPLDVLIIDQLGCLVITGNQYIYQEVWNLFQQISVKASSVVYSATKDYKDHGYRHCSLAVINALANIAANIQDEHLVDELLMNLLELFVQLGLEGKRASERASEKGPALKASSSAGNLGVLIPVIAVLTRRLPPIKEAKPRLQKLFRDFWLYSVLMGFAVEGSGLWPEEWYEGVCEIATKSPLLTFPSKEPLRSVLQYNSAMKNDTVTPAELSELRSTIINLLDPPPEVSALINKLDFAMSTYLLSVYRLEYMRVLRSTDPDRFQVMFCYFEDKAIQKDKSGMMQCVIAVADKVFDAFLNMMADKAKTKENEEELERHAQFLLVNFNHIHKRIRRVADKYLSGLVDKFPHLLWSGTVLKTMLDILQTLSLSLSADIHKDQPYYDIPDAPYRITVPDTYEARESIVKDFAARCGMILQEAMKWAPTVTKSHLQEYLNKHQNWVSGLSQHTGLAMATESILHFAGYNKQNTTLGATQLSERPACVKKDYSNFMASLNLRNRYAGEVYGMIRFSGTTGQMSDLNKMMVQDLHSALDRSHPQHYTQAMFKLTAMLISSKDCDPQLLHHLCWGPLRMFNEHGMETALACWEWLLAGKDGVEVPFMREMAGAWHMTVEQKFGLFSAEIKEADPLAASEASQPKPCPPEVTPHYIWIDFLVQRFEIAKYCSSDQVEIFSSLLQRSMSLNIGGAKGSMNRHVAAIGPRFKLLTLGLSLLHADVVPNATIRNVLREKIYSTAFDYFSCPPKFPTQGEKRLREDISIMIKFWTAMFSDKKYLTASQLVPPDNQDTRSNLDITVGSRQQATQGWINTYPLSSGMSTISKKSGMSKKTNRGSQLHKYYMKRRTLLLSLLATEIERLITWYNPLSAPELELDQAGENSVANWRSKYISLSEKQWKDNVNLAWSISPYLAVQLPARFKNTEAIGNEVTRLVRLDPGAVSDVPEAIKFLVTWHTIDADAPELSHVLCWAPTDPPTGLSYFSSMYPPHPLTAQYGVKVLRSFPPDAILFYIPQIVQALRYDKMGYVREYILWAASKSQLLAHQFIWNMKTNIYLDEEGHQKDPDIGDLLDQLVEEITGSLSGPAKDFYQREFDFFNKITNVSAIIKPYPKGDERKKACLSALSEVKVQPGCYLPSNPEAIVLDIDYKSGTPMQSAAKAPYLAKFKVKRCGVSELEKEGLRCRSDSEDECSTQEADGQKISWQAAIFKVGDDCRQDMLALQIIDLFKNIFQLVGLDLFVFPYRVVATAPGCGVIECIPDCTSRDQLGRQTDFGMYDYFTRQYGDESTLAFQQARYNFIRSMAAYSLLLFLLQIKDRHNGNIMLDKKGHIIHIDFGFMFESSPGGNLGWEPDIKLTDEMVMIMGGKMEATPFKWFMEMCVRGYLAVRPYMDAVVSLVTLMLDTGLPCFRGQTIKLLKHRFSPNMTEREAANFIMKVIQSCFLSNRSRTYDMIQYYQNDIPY
Sequence of PI4KIIIβ (Q9UBF8 whole entry): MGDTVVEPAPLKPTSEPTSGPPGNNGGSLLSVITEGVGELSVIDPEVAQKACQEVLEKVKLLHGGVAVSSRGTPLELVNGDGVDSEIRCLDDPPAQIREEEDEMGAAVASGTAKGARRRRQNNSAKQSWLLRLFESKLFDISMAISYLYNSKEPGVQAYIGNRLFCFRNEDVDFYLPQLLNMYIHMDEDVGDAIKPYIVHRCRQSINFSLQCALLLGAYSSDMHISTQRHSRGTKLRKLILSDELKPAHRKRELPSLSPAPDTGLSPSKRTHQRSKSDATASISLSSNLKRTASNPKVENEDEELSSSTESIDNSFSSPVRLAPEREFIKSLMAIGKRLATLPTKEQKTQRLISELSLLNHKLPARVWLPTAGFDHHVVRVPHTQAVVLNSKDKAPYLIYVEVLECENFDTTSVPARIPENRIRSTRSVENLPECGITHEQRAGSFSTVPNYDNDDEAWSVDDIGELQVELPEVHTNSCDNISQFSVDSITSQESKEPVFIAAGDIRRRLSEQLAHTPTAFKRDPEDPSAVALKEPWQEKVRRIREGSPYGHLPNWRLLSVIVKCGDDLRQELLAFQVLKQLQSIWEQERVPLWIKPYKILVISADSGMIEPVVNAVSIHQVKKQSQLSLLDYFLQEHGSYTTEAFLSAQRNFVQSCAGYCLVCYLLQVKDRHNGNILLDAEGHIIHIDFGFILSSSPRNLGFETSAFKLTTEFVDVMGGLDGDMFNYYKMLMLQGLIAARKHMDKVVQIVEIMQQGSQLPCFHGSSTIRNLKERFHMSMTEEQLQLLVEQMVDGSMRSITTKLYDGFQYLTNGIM

As for `COc1ccc(-c2c(C)nn3c(NCc4ccncc4)nc(C)nc23)cc1OC` [Example 6, 8-(3,4-dimethoxyphenyl)-2,7-dimethyl-N-(4-pyridylmethyl)pyrazolo[1,5-a][1,3,5]triazin-4-amine], the IC50 on PI4KIIIα is 3200 nM; against PI4KIIIβ, 1.3 nM; against PI3Kα it was 7300 nM; against PI3Kβ it was more than 10000 nM; in the assay with Enterovirus 6, less than 10 nM; in the assay with Enterovirus 30 (Enterovirus), less than 100 nM. Further, the IC50 in the assay with Enterovirus 68 (setting [1]), with Enterovirus 71, with coxsackie B1 virus, in the assay on coxsackie B2 virus, with coxsackie B3 virus (setting [2]) and with coxsackie B 4 virus (setting [3]) was less than 10 nM throughout. The IC50 in the assay on coxsackie B5virus and in the assay on polio virus Sabin 1 was less than 10 nM each time.
In the case of `COc1ccc(-c2c(C)nn3c(NCc4ccc(S(N)(=O)=O)cc4)nc(C)nc23)cc1OC` [Example 14, 4-[[[8-(3,4-dimethoxyphenyl)-2,7-dimethyl-pyrazolo[1,5-a][1,3,5]triazin-4-yl]amino]methyl]benzenesulfonamide], the 50% inhibitory concentration (IC50) against PI4KIIIα is 1300 nM; against PI4KIIIβ, 2.1 nM; against PI3Kα, more than 10000 nM; on PI3Kβ, more than 10000 nM; with Enterovirus 30 (Enterovirus), less than 10 nM; in the assay on Enterovirus 68 (setting [1]) it was less than 10 nM. Besides, the half-inhibitory concentration (IC50) in the assay on Enterovirus 71 was less than 10 nM; with coxsackie B1 virus it was less than 100 nM; in the assay on coxsackie B2 virus it was less than 100 nM; in the assay with coxsackie B3 virus (setting [2]) it was less than 100 nM; in the assay on coxsackie B 4 virus (setting [3]) it was less than 100 nM; with coxsackie B5virus, less than 10 nM. The half-maximal inhibitory concentration (IC50) in the assay on polio virus Sabin 1 was less than 10 nM.
On to `COc1ccc(-c2c(C)nn3c(NCc4ccc(C)nc4)nc(C)nc23)cc1OC` [Example 32, 8-(3,4-dimethoxyphenyl)-2,7-dimethyl-N-[(6-methylpyridin-3-yl)methyl]pyrazolo[1,5-a][1,3,5]triazin-4-amine], for which the IC50 is less than 100 nM in the assay on Enterovirus 6; less than 10 nM in the assay on Enterovirus 30 (prevention of viral CPE, mammalian cell culture, Enterovirus 30); less than 100 nM in the assay with Enterovirus 68 (EV68, prevention of viral CPE, mammalian cell culture, Enterovirus 68, read-out: inhibition capacity (IC50) EV68); less than 100 nM in the assay on Enterovirus 71; less than 100 nM with coxsackie B1 virus (prevention of viral CPE, mammalian cell culture, coxsackie B1 virus); less than 100 nM in the assay with coxsackie B2 virus (prevention of viral CPE, mammalian cell culture, coxsackie B2 virus). Moreover, the IC50 was less than 10 nM with coxsackie B3 virus (prevention of viral CPE, mammalian cell culture, coxsackie B3 virus, read-out: inhibition capacity (IC50) B3); less than 100 nM with coxsackie B 4 virus (prevention of viral CPE, mammalian cell culture, coxsackie B4 virus, read-out: inhibition capacity (IC50) B4); less than 100 nM with coxsackie B5virus (prevention of viral CPE, mammalian cell culture, coxsackie B5 virus); less than 100 nM in the assay on polio virus Sabin 1.
